Molecular target: T1, IKK-β (Homo sapiens, UniProt O14920)
T1 construct: purchased Promega
T1 sequence (O14920 1-756): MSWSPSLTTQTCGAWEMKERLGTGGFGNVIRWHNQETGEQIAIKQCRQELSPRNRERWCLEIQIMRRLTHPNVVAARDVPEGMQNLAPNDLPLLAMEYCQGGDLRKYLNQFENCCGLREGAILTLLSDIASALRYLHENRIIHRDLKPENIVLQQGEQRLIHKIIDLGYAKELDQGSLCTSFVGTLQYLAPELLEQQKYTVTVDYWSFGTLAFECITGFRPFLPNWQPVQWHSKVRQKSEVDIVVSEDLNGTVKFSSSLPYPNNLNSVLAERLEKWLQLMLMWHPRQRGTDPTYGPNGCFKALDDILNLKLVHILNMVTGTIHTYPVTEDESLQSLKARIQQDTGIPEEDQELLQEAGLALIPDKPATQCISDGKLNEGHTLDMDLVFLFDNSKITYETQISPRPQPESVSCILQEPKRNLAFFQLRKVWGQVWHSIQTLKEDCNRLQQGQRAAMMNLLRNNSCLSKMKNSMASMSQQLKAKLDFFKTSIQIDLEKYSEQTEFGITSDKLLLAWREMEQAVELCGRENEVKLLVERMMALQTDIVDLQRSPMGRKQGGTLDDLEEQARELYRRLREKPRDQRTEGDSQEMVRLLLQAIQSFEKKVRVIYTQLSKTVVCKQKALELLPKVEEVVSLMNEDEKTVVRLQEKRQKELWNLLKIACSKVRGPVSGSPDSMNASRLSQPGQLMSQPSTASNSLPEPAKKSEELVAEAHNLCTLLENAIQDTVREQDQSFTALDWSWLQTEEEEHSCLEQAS
Assay: ADP-Glo kinase assay, IKK-β inhibition
Assay type: biochemical
Settings: 10 µM; mean ± SD; read-out: % inh. at 10 µM IKK-β
Description: We evaluated the inhibitory activity of the final compounds against GSK-3β, IKK-β, and ROCK-1 kinases using the commercially available ADP-Glo™ kinase assay. The method was based on the measurement of luminescence that correlates with kinase activity. […] The latter are inhibitors of the kinases of interest and were integral to the design of our studies.
Promega’s Kinase Enzyme Systems (Promega; Madison, WI, USA) were used to determine the activities of the tested compounds against the human recombinant kinases GSK-3β, IKK- β, and ROCK-1. The assays were performed according to the provided manufacturer’s instruction, based on the optimized conditions of the enzymatic reactions, using the low-volume, white polystyrene, 384-well plates. The ADP-Glo™ Assay (Promega; Madison, WI, USA) was used for bioluminescent detection of the kinase activity. Stock solutions of the tested compounds in DMSO (1mM) were diluted with the Kinase Assay Buffer before use (40 mM Tris, pH 7.5, enriched with 50 µM dithiothreitol; DTT), giving the final desired concentrations. The kinase enzymes, substrates, and ATP solutions were also diluted with the assay buffer prior to use. The GSK-3β, IKK-β, and ROCK-1 substrates were derived from human muscle glycogen synthase 1, human IkBA, and human 40S ribosomal protein S6, respectively. The assay procedure was as follows: At first, the appropriate kinase enzyme (GSK-3β: 10 ng per well; IKK-β: 45 ng per well; ROCK-1: 24 ng per well) was incubated with the tested sample (10 µM in well) for 5 min. The DMSO solution (1% in well) was used in the blank samples instead of the tested inhibitors. After the incubation period, ATP (25 µM per well in the case of GSK-3β and IKK-β kinases; 5 µM per well in the case of ROCK-1 kinase) and an appropriate enzyme substrate (0.2 µg/µL in well) were added to start the enzymatic reaction. The reaction mixture was kept at room temperature for 1 h; then, the ADP-Glo™ reagent was added, to terminate the kinase reaction and deplete any remaining ATP. After 40 min, a second reagent (Kinase Detection Reagent) was applied to convert the obtained ADP to ATP and to generate light from the newly synthesized ATP using a luciferase/luciferin reaction. The mixture was incubated for another 30 min at room temperature before the luminescence was measured. The calculations of the percent of kinases’ inhibition by tested compounds were based on the equation 100 − (S/B) × 100; S and B are the enzyme activities with and without the tested sample, respectively. […] Each compound was evaluated in two independent experiments, with every data point collected in duplicate.

**Q.** For `CC(C)C(=O)Nc1cc(-c2cc3c(s2)C(=O)NC(C)(C)N3)ccn1` [Compound 39, N-(4-(2,2-Dimethyl-4-oxo-1,2,3,4-tetrahydrothieno [3,2-d]pyrimidin-6-yl)pyridin-2-yl)isobutyramide], which inhibition at 10 µM is on record?
**A.** 33%

**Q.** With `CC1(C)NC(=O)c2sc(-c3ccnc(NC(=O)C4CCC4)c3)cc2N1` [Compound 41, N-(4-(2,2-Dimethyl-4-oxo-1,2,3,4-tetrahydrothieno [3,2-d]pyrimidin-6-yl)pyridin-2-yl)-cyclobutanecarboxamide] as the molecule, how does the inhibition at 10 µM read?
**A.** 32%

**Q.** How did the inhibition at 10 µM turn out when `CC(C)C(=O)Nc1cc(-c2cc(NC(N)=O)c(C(N)=O)s2)ccn1` [Compound 48, 5-(2-Isobutyramidopyridin-4-yl)-3-ureidothiophene-2-carboxamide] was run?
**A.** < 10%

**Q.** Which inhibition at 10 µM does the source give for `NC(=O)Nc1cc(-c2ccnc(NC(=O)C3CC3)c2)sc1C(N)=O` [Compound 49, 5-(2-(Cyclopropanecarboxamido)pyridin-4-yl)-3-ureidothiophene-2-carboxamide] here?
**A.** 16%

**Q.** How did the inhibition at 10 µM turn out when `NC(=O)Nc1cc(-c2ccnc(NC(=O)C3CCC3)c2)sc1C(N)=O` [Compound 50, 5-(2-(Cyclobutanecarboxamido)pyridin-4-yl)-3-ureidothiophene-2-carboxamide] was run?
**A.** < 10%

**Q.** `O=C1NC2(CCOC2)Nc2cc(-c3ccnc(NC(=O)C4CC4)c3)sc21` (stereo not shown) [Compound 62, N-(4-(4′-Oxo-3′,4,4′,5-tetrahydro-1′H,2H-spiro[furan-3,2′-thieno [3,2-d]pyrimidin]-6′-yl)pyridin-2-yl)cyclopropanecarboxamide] was tested. Which inhibition at 10 µM did it give?
**A.** 39%

**Q.** `COc1nc(-c2ccnc(NC(=O)C3CC3)c2)sc1C(N)=O` [II, reference compound] was tested. Which inhibition at 10 µM did it give?
**A.** 22%

Same assay, conditions: mean ± SEM; ATP 25 µM

**Q.** `CC1(C)NC(=O)c2sc(-c3ccnc(NC(=O)C4CC4)c3)cc2N1` [Compound 40, N-(4-(2,2-Dimethyl-4-oxo-1,2,3,4-tetrahydrothieno [3,2-d]pyrimidin-6-yl)pyridin-2-yl)-cyclopropanecarboxamide] was tested. Which IC50 did it give?
**A.** 4.38 ± 0.544 µM

**Q.** How did the IC50 turn out when `NC(=O)Nc1cc(-c2cccc(NC(=O)C3CC3)c2)sc1C(N)=O` [Compound 58, 5-(3-(Cyclopropanecarboxamido)phenyl)-3-ureidothiophene-2-carboxamide] was run?
**A.** 0.422 ± 0.012 µM

**Q.** For `O=C1NC2(CCCC2)Nc2cc(-c3ccnc(NC(=O)C4CC4)c3)sc21` [Compound 60, N-(4-(4’-Oxo-3’,4’-dihydro-1’H-spiro[cyclopentane-1,2’-thieno [3,2-d]pyrimidin]-6’-yl)pyridin-2-yl)cyclopropanecarboxamide], which IC50 is on record?
**A.** 7.35 µM

Source: PMC11173485, “Connecting GSK-3β Inhibitory Activity with IKK-β or ROCK-1 Inhibition to Target Tau Aggregation and Neuroinflammation in Alzheimer’s Disease—Discovery, In Vitro and In Cellulo Activity of Thiazole-Based Inhibitors” (Molecules, 2024)
